Reference: article PMC8413292, “Small-molecule polymerase inhibitor protects non-human primates from measles and reduces shedding” (Nature Communications, 2021)
Where “and” joins values, the source holds several entries; their conditions need not be identical. Equal entries are not always repeated.

Key:
[1] = Trough serum concentration during 14-day b.i.d. oral treatment of infected squirrel monkeys; settings: for ERDRP-0519 trough serum concentration: 50 mg/kg b.i.d. oral
Experimental: (§1) All animal experiments were carried out in compliance with the regulations of German animal protection laws and authorized by the Regierungspräsidium Darmstadt, Germany (Dezernat V54 – Veterinärwesen und Verbraucherschutz, Hilpertstrasse 31, 64295 Darmstadt). Adult male and female squirrel monkeys (Saimiri sciureus) were obtained from BioPRIM, 31450 Baziege, or CNRS 0846 Primatologie, 13790 Rousset, France. Each experimental group was housed in a separate room, and animals of the same sex were caged together within the respective groups. For the single-dose pharmacokinetic experiment, animals were anesthetized, and the drug was given through a stomach tube at a concentration of 50 mg/kg bodyweight. Blood samples were collected after 15, 30, and 60 min, and 2, 3, 6, and 24 h. For efficacy assessment, groups of 6 animals were left untreated or treated with 50 mg/kg of ERDRP-0519 twice daily for two weeks, starting either 12 h before or 3 or 7 days after intranasal infection with 10^6 TCID50 of MV/FrankfurtMain.DEU/17.11. Clinical signs, rectal temperature, and weight were recorded daily, and throat swabs and blood samples were collected before infection and twice weekly thereafter. On day 21 post-infection, the animals were euthanized, necropsied, and samples were collected for histological analysis.
Drug concentrations were determined using an internal standard and a reversed phase isocratic HPLC method with positive ion electrospray ionization (ESI) mass spectrometry detection (LC/MS/MS) on an AB-SCIEX API 5500 MS/MS instrument (5 μl injection volume). Pharmacokinetic parameters were estimated using WinNonlin 5.3 (Pharsight).

[2] = tested on: MV/FrankfurtMain.DEU/17.11 (genotype D8); test: Rectal temperature of MeV-infected squirrel monkeys; format: in vivo, squirrel monkeys (Saimiri sciureus); settings: for Temperature: individual animals
Experimental: as §1

[3] = Necropsy and histology (H&E) for pharmacotoxicity; format: in vivo
From the text: After euthanasia, each animal was examined for gross pathological changes, and samples were collected for histopathological examination. After fixation, all tissue samples were embedded in paraffin. Histology slices were mounted and stained using standard H&E staining techniques.

Cn1nc(C(F)(F)F)cc1C(=O)Nc1ccc(S(=O)(=O)N2CCCC[C@H]2CCN2CCOCC2)cc1 [ERDRP-0519]
ERDRP-0519 trough serum concentration ([1]; 0 days post-treatment, individual animals): 0 µM and 0.05627 µM and 0.03323 µM
ERDRP-0519 trough serum concentration ([1]; 3 days post-treatment, individual animals): 0.9158 µM and 2.53 µM and 4.796 µM and 7.1567 µM and 0.8139 µM and 7.176 µM and 3.758 µM and 1.907 µM and 3.569 µM and 2.058 µM and 2.606 µM and 7.006 µM and 2.984 µM and 1.541 µM and 2.285 µM
ERDRP-0519 trough serum concentration ([1]; 7 days post-treatment, individual animals): 0.9763 µM and 1.28 µM and 2.908 µM and 3.21 µM and 2.4548 µM and 4.759 µM and 3.323 µM and 2.832 µM and 2.134 µM and 0.6741 µM and 2.096 µM and 3.644 µM and 0.525 µM and 0.5703 µM
ERDRP-0519 trough serum concentration ([1]; 10 days post-treatment, individual animals): 1.654 µM and 2.228 µM and 2.832 µM and 4.4753 µM and 4.4 µM and 4.664 µM and 1.699 µM and 1.669 µM and 0.9989 µM and 0.9857 µM and 2.153 µM and 3.116 µM and 0.6949 µM and 1.573 µM and 0.608 µM
ERDRP-0519 trough serum concentration ([1]; 14 days post-treatment, individual animals): 0.08309 µM and 0.0727 µM and 0.355 µM and 0.6534 µM and 1.862 µM and 2.172 µM and 2.474 µM and 1.513 µM and 0.2417 µM and 0.676 µM and 1.412 µM and 0.1537 µM and 0.3267 µM and 0.02398 µM
concentration at 7 days post-infection ([1]; both, monkey, serum, oral, 50 mg/kg twice daily, ERDRP-0519 serum conc., therapeutic(d7) group, day 7 post-infection, individual animals): 0 nM
Mean drug plasma concentration of all animals over the full study period ([1]; monkey, in vivo): ~ 1.6 µM
drug accumulation on repeat-dosing ([1]; multi-dose b.i.d., 15 animals): does not result in ERDRP-0519 accumulation
Temperature, Mean Diff, untreated vs. prophylactic ([2]; Row 1 (day 0)): -1.35
Temperature, Mean Diff, untreated vs. therapeutic (d3) ([2]; Row 1 (day 0)): -0.9667
Temperature, Mean Diff, untreated vs. therapeutic (d7) ([2]; Row 1 (day 0)): -0.7167
Temperature, Mean Diff, untreated vs. prophylactic ([2]; Row 2 (day 3)): 0.5833
Temperature, Mean Diff, untreated vs. therapeutic (d3) ([2]; Row 2 (day 3)): -0.05
Temperature, Mean Diff, untreated vs. therapeutic (d7) ([2]; Row 2 (day 3)): -0.03333
Temperature, Mean Diff, untreated vs. prophylactic ([2]; Row 3 (day 7)): 1.2
Temperature, Mean Diff, untreated vs. therapeutic (d3) ([2]; Row 3 (day 7)): 0.5167
Temperature, Mean Diff, untreated vs. therapeutic (d7) ([2]; Row 3 (day 7)): 0.4333
Temperature, Mean Diff, untreated vs. prophylactic ([2]; Row 4 (day 10)): 0.5333
Temperature, Mean Diff, untreated vs. therapeutic (d3) ([2]; Row 4 (day 10)): 0.3667
Temperature, Mean Diff, untreated vs. therapeutic (d7) ([2]; Row 4 (day 10)): 0.5
Temperature, Mean Diff, untreated vs. prophylactic ([2]; Row 5 (day 14)): -0.25
Temperature, Mean Diff, untreated vs. therapeutic (d3) ([2]; Row 5 (day 14)): 0.4
Temperature, Mean Diff, untreated vs. therapeutic (d7) ([2]; Row 5 (day 14)): 0.3
Temperature, Mean Diff, untreated vs. prophylactic ([2]; Row 6 (day 17)): 0.1667
Temperature, Mean Diff, untreated vs. therapeutic (d3) ([2]; Row 6 (day 17)): 0.24
Temperature, Mean Diff, untreated vs. therapeutic (d7) ([2]; Row 6 (day 17)): 0.2333
Temperature, Mean Diff, untreated vs. prophylactic ([2]; Row 7 (day 21)): -0.3167
Temperature, Mean Diff, untreated vs. therapeutic (d3) ([2]; Row 7 (day 21)): -0.1
Temperature, Mean Diff, untreated vs. therapeutic (d7) ([2]; Row 7 (day 21)): -0.1167
Temperature ([2]; prophylactic group, day 0): 38.9 °C and 38.6 °C and 38.7 °C (2×) and 39.3 °C and 38.2 °C
Temperature ([2]; prophylactic group, day 3): 38.6 °C and 38.5 °C and 39.1 °C and 39 °C and 37.5 °C and 38.8 °C
Temperature ([2]; prophylactic group, day 7): 39.3 °C (2×) and 38.5 °C and 38.7 °C and 38.8 °C and 37.3 °C
Temperature ([2]; prophylactic group, day 10): 39.8 °C and 39.3 °C (2×) and 38.9 °C and 38.3 °C and 39.7 °C
Temperature ([2]; prophylactic group, day 14): 40.1 °C and 40.5 °C (2×) and 39.6 °C (2×) and 39.1 °C
Temperature ([2]; prophylactic group, day 17): 39.7 °C (2×) and 39.8 °C and 39.3 °C and 38.7 °C and 40 °C
Temperature ([2]; prophylactic group, day 21): 39.5 °C (2×) and 39.7 °C (2×) and 39.1 °C and 39.6 °C
Temperature, group mean (Mean 2) ([2]; prophylactic, Row 1 (day 0)): 38.73
Temperature, group mean (Mean 2) ([2]; prophylactic, Row 2 (day 3)): 38.58
Temperature, group mean (Mean 2) ([2]; prophylactic, Row 3 (day 7)): 38.65
Temperature, group mean (Mean 2) ([2]; prophylactic, Row 4 (day 10)): 39.22
Temperature, group mean (Mean 2) ([2]; prophylactic, Row 5 (day 14)): 39.9
Temperature, group mean (Mean 2) ([2]; prophylactic, Row 6 (day 17)): 39.53
Temperature, group mean (Mean 2) ([2]; prophylactic, Row 7 (day 21)): 39.52
mean temperatures in the distinct groups ([2]; remained within the pre-infection range, all groups): less than 40 °C
Temperature ([2]; therapeutic (d3) group, day 0): 37.9 °C and 38.1 °C and 37.8 °C and 39.1 °C and 38.4 °C and 38.8 °C
Temperature ([2]; therapeutic (d3) group, day 3): 39.3 °C and 38.3 °C and 39.2 °C and 40 °C and 39.4 °C and 39.1 °C
Temperature ([2]; therapeutic (d3) group, day 7): 38.9 °C and 38.7 °C and 39.4 °C (2×) and 39.8 °C (2×)
Temperature ([2]; therapeutic (d3) group, day 10): 38.4 °C and 39 °C and 39.3 °C and 39.6 °C and 39.7 °C and 40.3 °C
Temperature ([2]; therapeutic (d3) group, day 14): 39.1 °C (2×) and 38.7 °C and 39.5 °C (2×) and 39.6 °C
Temperature ([2]; therapeutic (d3) group, day 17): 39.1 °C and 39.5 °C (2×) and 39.8 °C and 39.4 °C
Temperature ([2]; therapeutic (d3) group, day 21): 39.1 °C and 38.8 °C (2×) and 39.8 °C and 40 °C
Temperature, group mean (Mean 2) ([2]; therapeutic (d3), Row 1 (day 0)): 38.35
Temperature, group mean (Mean 2) ([2]; therapeutic (d3), Row 2 (day 3)): 39.22
Temperature, group mean (Mean 2) ([2]; therapeutic (d3), Row 3 (day 7)): 39.33
Temperature, group mean (Mean 2) ([2]; therapeutic (d3), Row 4 (day 10)): 39.38
Temperature, group mean (Mean 2) ([2]; therapeutic (d3), Row 5 (day 14)): 39.25
Temperature, group mean (Mean 2) ([2]; therapeutic (d3), Row 6 (day 17), N = 5): 39.46
Temperature, group mean (Mean 2) ([2]; therapeutic (d3), Row 7 (day 21), N = 5): 39.3
Temperature ([2]; therapeutic (d7) group, day 0): 38.4 °C and 38.3 °C and 38 °C and 37.9 °C (2×) and 38.1 °C
Temperature ([2]; therapeutic (d7) group, day 3): 39.3 °C (2×) and 39.4 °C (2×) and 38.6 °C and 39.2 °C
Temperature ([2]; therapeutic (d7) group, day 7): 40 °C (2×) and 39.2 °C (2×) and 38.7 °C and 39.4 °C
Temperature, group mean (Mean 2) ([2]; therapeutic (d7), Row 1 (day 0)): 38.1
Temperature, group mean (Mean 2) ([2]; therapeutic (d7), Row 2 (day 3)): 39.2
Temperature, group mean (Mean 2) ([2]; therapeutic (d7), Row 3 (day 7)): 39.42
Temperature, group mean (Mean 2) ([2]; therapeutic (d7), Row 4 (day 10)): 39.25
Temperature, group mean (Mean 2) ([2]; therapeutic (d7), Row 5 (day 14)): 39.35
Temperature, group mean (Mean 2) ([2]; therapeutic (d7), Row 6 (day 17)): 39.47
Temperature, group mean (Mean 2) ([2]; therapeutic (d7), Row 7 (day 21)): 39.32
histological signs of pharmacotoxicity ([3]; all monkeys, day 21, 50 mg/kg b.i.d. 14 days): No histological signs of pharmacotoxicity were detected
liver histology of the deceased animal versus untreated control ([3]; day 3 therapeutic group animal deceased day 15): no pathological alternations
